Results published in ChEMBL document CHEMBL1255262, “Antimicrobial activity of omiganan pentahydrochloride against contemporary fungal pathogens responsible for catheter-associated infections” (2008).
Converted amounts (≈) assume the structure as drawn. Peptide text beside a SMILES is read from it.

Columns and labels:
Format in all cases: functional
Nakaseomyces glabratus [1] = experiment: Antifungal activity against Candida glabrata after 48 hrs by broth microdilution
Pichia kudriavzevii [2] = experiment: Antifungal activity against Candida krusei after 48 hrs by broth microdilution
Candida parapsilosis [3] = experiment: Antifungal activity against Candida parapsilosis after 48 hrs by broth microdilution
Candida tropicalis [4] = experiment: Antifungal activity against Candida tropicalis after 48 hrs by broth microdilution
Aspergillus sp. = experiment: Antifungal activity against Aspergillus sp. after 48 hrs by broth microdilution
Curvularia = experiment: Antifungal activity against Curvularia species after 48 hrs by broth microdilution
Fusarium sp. = experiment: Antifungal activity against Fusarium sp. after 48 hrs by broth microdilution
Paecilomyces variotii = experiment: Antifungal activity against Paecilomyces variotii after 48 hrs by broth microdilution
Talaromyces marneffei = experiment: Antifungal activity against Penicillium marneffei after 48 hrs by broth microdilution
Penicillium sp. = experiment: Antifungal activity against Penicillium sp. after 48 hrs by broth microdilution
Candida albicans [5] = experiment: Antifungal activity against Candida albicans after 48 hrs by broth microdilution
Candida albicans [6] = experiment: Antifungal activity against Candida albicans assessed as susceptible isolates after 48 hrs by broth microdilution
Nakaseomyces glabratus [7] = experiment: Antifungal activity against Candida glabrata assessed as susceptible isolates after 48 hrs by broth microdilution
Pichia kudriavzevii [8] = experiment: Antifungal activity against Candida krusei assessed as susceptible isolates after 48 hrs by broth microdilution
Candida parapsilosis [9] = experiment: Antifungal activity against Candida parapsilosis assessed as susceptible isolates after 48 hrs by broth microdilution
Candida tropicalis [10] = experiment: Antifungal activity against Candida tropicalis assessed as susceptible isolates after 48 hrs by broth microdilution
Candida albicans [11] = experiment: Antifungal activity against Candida albicans assessed as resistant isolates after 48 hrs by broth microdilution
Nakaseomyces glabratus [12] = experiment: Antifungal activity against Candida glabrata assessed as resistant isolates after 48 hrs by broth microdilution
Pichia kudriavzevii [13] = experiment: Antifungal activity against Candida krusei assessed as resistant isolates after 48 hrs by broth microdilution
Candida parapsilosis [14] = experiment: Antifungal activity against Candida parapsilosis assessed as resistant isolates after 48 hrs by broth microdilution
Candida tropicalis [15] = experiment: Antifungal activity against Candida tropicalis assessed as resistant isolates after 48 hrs by broth microdilution

Compound	MIC50 (Nakaseomyces glabratus [1]) [µg/mL]	MIC90 (Nakaseomyces glabratus [1]) [µg/mL]	MIC50 (Pichia kudriavzevii [2]) [µg/mL]	MIC90 (Pichia kudriavzevii [2]) [µg/mL]	MIC50 (Candida tropicalis [4]) [µg/mL]	MIC90 (Candida tropicalis [4]) [µg/mL]	MIC50 (Aspergillus sp.) [µg/mL]	MIC90 (Aspergillus sp.) [µg/mL]	MIC50 (Curvularia) [µg/mL]	MIC90 (Curvularia) [µg/mL]	MIC50 (Fusarium sp.) [µg/mL]	MIC90 (Fusarium sp.) [µg/mL]	MIC50 (Paecilomyces variotii) [µg/mL]	MIC90 (Paecilomyces variotii) [µg/mL]	MIC50 (Talaromyces marneffei) [µg/mL]	MIC90 (Talaromyces marneffei) [µg/mL]	MIC50 (Penicillium sp.) [µg/mL]	MIC90 (Penicillium sp.) [µg/mL]	MIC50 (Candida albicans [5]) [µg/mL]	MIC90 (Candida albicans [5]) [µg/mL]	also measured
C[C@@H]1[C@H](O)[C@@H](C)/C=C/C=C/C=C/C=C/C=C/C=C/C=C/[C@H](O[C@@H]2O[C@H](C)[C@@H](O)[C@H](N)[C@@H]2O)C[C@@H]2O[C@](O)(C[C@@H](O)C[C@@H](O)[C@H](O)CC[C@@H](O)C[C@@H](O)CC(=O)O[C@H]1C)C[C@H](O)[C@H]2C(=O)O [AMPHOTERICIN B]	1 (≈ 1.08 µM)	1 (≈ 1.08 µM)	1 (≈ 1.08 µM)	2 (≈ 2.16 µM)	1 (≈ 1.08 µM)	1 (≈ 1.08 µM)	0.5 (≈ 0.541 µM)	1 (≈ 1.08 µM)	0.25 (≈ 0.271 µM)	0.5 (≈ 0.541 µM)	0.25 (≈ 0.271 µM)	0.5 (≈ 0.541 µM)	0.25 (≈ 0.271 µM)	0.5 (≈ 0.541 µM)	0.25 (≈ 0.271 µM)	0.5 (≈ 0.541 µM)	0.25 (≈ 0.271 µM)	0.5 (≈ 0.541 µM)	1 (≈ 1.08 µM)	1 (≈ 1.08 µM)	MIC (Candida parapsilosis [3]; Lodderomyces parapsilosis): 1 µg/mL (≈ 1.08 µM); MIC50 (Candida parapsilosis [3]; Lodderomyces parapsilosis): 1 µg/mL (≈ 1.08 µM); MIC90 (Candida parapsilosis [3]; Lodderomyces parapsilosis): 1 µg/mL (≈ 1.08 µM)
OC(Cn1cncn1)(Cn1cncn1)c1ccc(F)cc1F [FLUCONAZOLE]	4 (≈ 13.1 µM)	> 64	32 (≈ 104 µM)	64 (≈ 209 µM)	0.25 (≈ 0.816 µM)	> 64	> 64	> 64	> 64	> 64	> 64	> 64	> 64	> 64	> 64	> 64	> 64	> 64	1 (≈ 3.27 µM)	> 64	MIC (Pichia kudriavzevii [2]): 32 µg/mL (≈ 104 µM); MIC (Candida parapsilosis [3]; Lodderomyces parapsilosis): 0.5 µg/mL (≈ 1.63 µM); MIC50 (Candida parapsilosis [3]; Lodderomyces parapsilosis): 0.5 µg/mL (≈ 1.63 µM); MIC90 (Candida parapsilosis [3]; Lodderomyces parapsilosis): 16 µg/mL (≈ 52.2 µM); Activity (Candida albicans [6]): 67.3%; Activity (Nakaseomyces glabratus [7]): 77.3%; Activity (Pichia kudriavzevii [8]): 0%; Activity (Candida parapsilosis [9]): 81.8%; Activity (Candida tropicalis [10]): 81.8%; Activity (Candida albicans [11]): 30.8%; Activity (Nakaseomyces glabratus [12]): 18.2%; Activity (Pichia kudriavzevii [13]): 100%; Activity (Candida parapsilosis [14]): 0%; Activity (Candida tropicalis [15]): 18.2%
Nc1nc(=O)[nH]cc1F [FLUCYTOSINE]	0.06 (≈ 0.465 µM)	0.06 (≈ 0.465 µM)	16 (≈ 124 µM)	32 (≈ 248 µM)	0.06 (≈ 0.465 µM)	0.12 (≈ 0.93 µM)	> 64	> 64	> 64	> 64	> 64	> 64	> 64	> 64	> 64	> 64	> 64	> 64	0.12 (≈ 0.93 µM)	1 (≈ 7.75 µM)	MIC50 (Candida parapsilosis [3]; Lodderomyces parapsilosis): 0.12 µg/mL (≈ 0.93 µM); MIC90 (Candida parapsilosis [3]; Lodderomyces parapsilosis): 0.12 µg/mL (≈ 0.93 µM); MIC (Candida tropicalis [4]): 0.06 µg/mL (≈ 0.465 µM); Activity (Candida albicans [6]): 100%; Activity (Nakaseomyces glabratus [7]): 100%; Activity (Pichia kudriavzevii [8]): 0%; Activity (Candida parapsilosis [9]): 100%; Activity (Candida tropicalis [10]): 100%; Activity (Candida albicans [11]): 0%; Activity (Nakaseomyces glabratus [12]): 0%; Activity (Pichia kudriavzevii [13]): 30%; Activity (Candida parapsilosis [14]): 0%; Activity (Candida tropicalis [15]): 0%
CCC(C)n1ncn(-c2ccc(N3CCN(c4ccc(OCC5COC(Cn6cncn6)(c6ccc(Cl)cc6Cl)O5)cc4)CC3)cc2)c1=O (centres undefined) [ITRACONAZOLE]	0.12 (≈ 0.17 µM)	0.5 (≈ 0.709 µM)	0.5 (≈ 0.709 µM)	0.5 (≈ 0.709 µM)	0.03 (≈ 0.0425 µM)	0.12 (≈ 0.17 µM)	0.03 (≈ 0.0425 µM)	0.06 (≈ 0.085 µM)	0.06 (≈ 0.085 µM)	> 16	0.06 (≈ 0.085 µM)	> 16	0.06 (≈ 0.085 µM)	> 16	0.06 (≈ 0.085 µM)	> 16	0.06 (≈ 0.085 µM)	> 16	0.12 (≈ 0.17 µM)	16 (≈ 22.7 µM)	MIC50 (Candida parapsilosis [3]; Lodderomyces parapsilosis): 0.06 µg/mL (≈ 0.085 µM); MIC90 (Candida parapsilosis [3]; Lodderomyces parapsilosis): 0.25 µg/mL (≈ 0.354 µM); Activity (Candida albicans [6]): 50%; Activity (Nakaseomyces glabratus [7]): 72.7%; Activity (Pichia kudriavzevii [8]): 10%; Activity (Candida parapsilosis [9]): 63.6%; Activity (Candida tropicalis [10]): 100%; Activity (Candida albicans [11]): 48.1%; Activity (Nakaseomyces glabratus [12]): 4.6%; Activity (Pichia kudriavzevii [13]): 0%; Activity (Candida parapsilosis [14]): 0%; Activity (Candida tropicalis [15]): 0%
CC[C@H](C)[C@H](N)C(=O)N[C@@H](CC(C)C)C(=O)N[C@@H](CCCNC(=N)N)C(=O)N[C@@H](Cc1c[nH]c2ccccc12)C(=O)N1CCC[C@H]1C(=O)N[C@@H](Cc1c[nH]c2ccccc12)C(=O)N[C@@H](Cc1c[nH]c2ccccc12)C(=O)N1CCC[C@H]1C(=O)N[C@@H](Cc1c[nH]c2ccccc12)C(=O)N[C@@H](CCCNC(=N)N)C(=O)N[C@@H](CCCNC(=N)N)C(=O)N[C@@H](CCCCN)C(N)=O.Cl.Cl.Cl.Cl.Cl [OMIGANAN PENTAHYDROCHLORIDE] (H-ILRWPWWPWRRK-NH2)	256	256	64	128	32	32	128	1020	64	256	64	256	64	256	64	256	64	256	64	128	MIC50 (Candida parapsilosis [3]; Lodderomyces parapsilosis): 128 µg/mL; MIC90 (Candida parapsilosis [3]; Lodderomyces parapsilosis): 256 µg/mL
C[C@@H](c1ncncc1F)[C@](O)(Cn1cncn1)c1ccc(F)cc1F [VORICONAZOLE]	0.06 (≈ 0.172 µM)	2 (≈ 5.73 µM)	0.25 (≈ 0.716 µM)	0.5 (≈ 1.43 µM)	0.015 (≈ 0.0429 µM)	16 (≈ 45.8 µM)	0.25 (≈ 0.716 µM)	0.25 (≈ 0.716 µM)	0.25 (≈ 0.716 µM)	2 (≈ 5.73 µM)	0.25 (≈ 0.716 µM)	2 (≈ 5.73 µM)	0.25 (≈ 0.716 µM)	2 (≈ 5.73 µM)	0.25 (≈ 0.716 µM)	2 (≈ 5.73 µM)	0.25 (≈ 0.716 µM)	2 (≈ 5.73 µM)	0.03 (≈ 0.0859 µM)	> 16	MIC50 (Candida parapsilosis [3]; Lodderomyces parapsilosis): 0.015 µg/mL (≈ 0.0429 µM); MIC90 (Candida parapsilosis [3]; Lodderomyces parapsilosis): 0.12 µg/mL (≈ 0.344 µM); MIC (Candida tropicalis [4]): 0.015 µg/mL (≈ 0.0429 µM); Activity (Candida albicans [6]): 75%; Activity (Nakaseomyces glabratus [7]): 86.4%; Activity (Pichia kudriavzevii [8]): 100%; Activity (Candida parapsilosis [9]): 100%; Activity (Candida tropicalis [10]): 72.7%; Activity (Candida albicans [11]): 25%; Activity (Nakaseomyces glabratus [12]): 0%; Activity (Pichia kudriavzevii [13]): 0%; Activity (Candida parapsilosis [14]): 0%; Activity (Candida tropicalis [15]): 27.3%
NYSTATIN	8	8	8	8	8	8	16	16	8	16	8	16	8	16	8	16	8	16	8	8	MIC50 (Candida parapsilosis [3]): 8 µg/mL; MIC90 (Candida parapsilosis [3]): 8 µg/mL
